Key:
Assay type in all cases: in vivo
[1] = system: Ryegrass, Italian (Italian ryegrass, Lolium multiflorum); test: Test A postemergence, Ryegrass, Italian; settings: Postemergence, 0 to 100 scale (0 no effect, 100 complete control); for Ryegrass, Italian plant response rating: visual injury vs untreated controls after approx. 10 days
Summary of the method: (§1)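 Greenhouse pot test in a loam–sand blend; compounds delivered in a non-phytotoxic solvent carrying a surfactant, applied either as a directed spray to soil at seeding or over seedlings 2 to 10 cm high with one to two leaves.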

[2] = system: ragweed (common ragweed, Ambrosia artemisiifolia); test: Test A preemergence, ragweed; settings: Preemergence; for Ragweed plant response rating: visual injury on 0 to 100 scale (0 no effect, 100 complete control), approximately 10 days; for Plant response rating, Ragweed: 0 to 100 scale (0 no effect, 100 complete control)
Summary of the method: as §1

[3] = system: pigweed (Amaranthus retroflexus); test: Test A preemergence, pigweed; settings: for Pigweed plant response rating: visual injury on 0 to 100 scale (0 no effect, 100 complete control), approximately 10 days; for Plant response rating, Pigweed: 0 to 100 scale (0 no effect, 100 complete control)
Summary of the method: (§2)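 Preemergence: seeded pots of loam plus sand received a directed soil spray. Postemergence: seedlings at one to two leaves, 2 to 10 cm high, were oversprayed. Each compound was formulated in a non-phytotoxic solvent mix that included a surfactant.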

[4] = system: Foxtail, Giant (giant foxtail, Setaria faberi); test: Test A preemergence, Foxtail, Giant; settings: Preemergence; for Foxtail, Giant plant response rating: visual injury on 0 to 100 scale (0 no effect, 100 complete control), approximately 10 days; for Plant response rating, Foxtail, Giant: 0 to 100 scale (0 no effect, 100 complete control)
Summary of the method: as §1

[5] = system: wheat (Triticum aestivum); test: Test A postemergence, wheat; settings: Postemergence, 0 to 100 scale (0 no effect, 100 complete control); for Wheat plant response rating: visual injury vs untreated controls after approx. 10 days
Summary of the method: as §2

[6] = system: pigweed (Amaranthus retroflexus); test: Test A postemergence, pigweed; settings: Postemergence, 0 to 100 scale (0 no effect, 100 complete control); for Pigweed plant response rating: visual injury vs untreated controls after approx. 10 days
Summary of the method: as §1

[7] = system: blackgrass (Alopecurus myosuroides); test: Test A postemergence, blackgrass; settings: Postemergence, 0 to 100 scale (0 no effect, 100 complete control); for Blackgrass plant response rating: visual injury vs untreated controls after approx. 10 days
Summary of the method: as §1

[8] = system: corn (Zea mays); test: Test A postemergence, corn; settings: Postemergence, 0 to 100 scale (0 no effect, 100 complete control); for Corn plant response rating: visual injury vs untreated controls after approx. 10 days
Summary of the method: as §1

[9] = system: barnyardgrass (Echinochloa crus-galli); test: Test A postemergence, barnyardgrass; settings: Postemergence, 0 to 100 scale (0 no effect, 100 complete control); for Barnyardgrass plant response rating: visual injury vs untreated controls after approx. 10 days
Summary of the method: as §2

[10] = system: barnyardgrass (Echinochloa crus-galli); test: Test A preemergence, barnyardgrass; settings: Preemergence; for Barnyardgrass plant response rating: visual injury on 0 to 100 scale (0 no effect, 100 complete control), approximately 10 days; for Plant response rating, Barnyardgrass: 0 to 100 scale (0 no effect, 100 complete control)
Summary of the method: as §1

[11] = system: kochia (Bassia scoparia); test: Test A postemergence, kochia; settings: Postemergence, 0 to 100 scale (0 no effect, 100 complete control); for Kochia plant response rating: visual injury vs untreated controls after approx. 10 days
Summary of the method: as §1

[12] = system: Foxtail, Giant (giant foxtail, Setaria faberi); test: Test A postemergence, Foxtail, Giant; settings: Postemergence, 0 to 100 scale (0 no effect, 100 complete control); for Foxtail, Giant plant response rating: visual injury vs untreated controls after approx. 10 days
Summary of the method: as §1

[13] = system: ragweed (common ragweed, Ambrosia artemisiifolia); test: Test A postemergence, ragweed; settings: Postemergence, 0 to 100 scale (0 no effect, 100 complete control); for Ragweed plant response rating: visual injury vs untreated controls after approx. 10 days
Summary of the method: as §1

[14] = system: kochia (Bassia scoparia); test: Test A preemergence, kochia; settings: Preemergence; for Kochia plant response rating: visual injury on 0 to 100 scale (0 no effect, 100 complete control), approximately 10 days; for Plant response rating, Kochia: 0 to 100 scale (0 no effect, 100 complete control)
Summary of the method: as §1

[15] = system: galium (catchweed bedstraw, Galium aparine); test: Test A postemergence, galium; settings: Postemergence, 0 to 100 scale (0 no effect, 100 complete control); for Galium plant response rating: visual injury vs untreated controls after approx. 10 days
Summary of the method: as §2

[16] = system: Ryegrass, Italian (Italian ryegrass, Lolium multiflorum); test: Test A preemergence, Ryegrass, Italian; settings: Preemergence; for Ryegrass, Italian plant response rating: visual injury on 0 to 100 scale (0 no effect, 100 complete control), approximately 10 days; for Plant response rating, Ryegrass, Italian: 0 to 100 scale (0 no effect, 100 complete control)
Summary of the method: as §1

[17] = 125 g ai/ha, visual injury approx. 10 days
[18] = 500 g ai/ha, visual injury approx. 10 days
[19] = 125 g ai/ha, visual injury, approx. 10 days
[20] = 1000 g ai/ha, visual injury, approx. 10 days

## Cc1cc(C)c(-n2nccc(Cl)c2=O)cc1NS(=O)(=O)C(F)(F)F [Compound 82]
[1]; [17]
  Plant response rating, Ryegrass, Italian: 0
[1]; 500 g ai/ha
  Ryegrass, Italian plant response rating: 0
[2]; 125 g ai/ha
  Ragweed plant response rating: 0
[2]; 500 g ai/ha
  Plant response rating, Ragweed: 20
[3]; 125 g ai/ha
  Pigweed plant response rating: 90
[3]; 500 g ai/ha
  Plant response rating, Pigweed: 80
[4]; 125 g ai/ha
  Foxtail, Giant plant response rating: 0
[4]; 500 g ai/ha
  Plant response rating, Foxtail, Giant: 60
[5]; [17]
  Plant response rating, Wheat: 0
[5]; 500 g ai/ha
  Wheat plant response rating: 0
[6]; [17]
  Plant response rating, Pigweed: 0
[6]; 500 g ai/ha
  Pigweed plant response rating: 40
[7]; [17]
  Plant response rating, Blackgrass: 0
[7]; 500 g ai/ha
  Blackgrass plant response rating: 0
[8]; [17]
  Plant response rating, Corn: 0
[8]; 500 g ai/ha
  Corn plant response rating: 40
[9]; [17]
  Plant response rating, Barnyardgrass: 60
[9]; 500 g ai/ha
  Barnyardgrass plant response rating: 20
[10]; 125 g ai/ha
  Barnyardgrass plant response rating: 40
[10]; 500 g ai/ha
  Plant response rating, Barnyardgrass: 80
[11]; [17]
  Plant response rating, Kochia: 0
[11]; 500 g ai/ha
  Kochia plant response rating: 0
[12]; [17]
  Plant response rating, Foxtail, Giant: 20
[12]; 500 g ai/ha
  Foxtail, Giant plant response rating: 50
[13]; [17]
  Plant response rating, Ragweed: 0
[13]; 500 g ai/ha
  Ragweed plant response rating: 30
[14]; 125 g ai/ha
  Kochia plant response rating: 70
[14]; 500 g ai/ha
  Plant response rating, Kochia: 90
[15]; [17]
  Plant response rating, Galium: 20
[15]; 500 g ai/ha
  Galium plant response rating: 10
[16]; 125 g ai/ha
  Ryegrass, Italian plant response rating: 20
[16]; 500 g ai/ha
  Plant response rating, Ryegrass, Italian: 40

## COc1ccnn(-c2cc(NS(=O)(=O)C(F)(F)F)c(C)cc2C)c1=O [Compound 60]
[1]; [17]
  Plant response rating, Ryegrass, Italian: 70
[1]; 500 g ai/ha
  Ryegrass, Italian plant response rating: 80
[2]; 125 g ai/ha
  Ragweed plant response rating: 30
[2]; 500 g ai/ha
  Plant response rating, Ragweed: 70
[3]; 125 g ai/ha
  Pigweed plant response rating: 100
[3]; 500 g ai/ha
  Plant response rating, Pigweed: 100
[4]; 125 g ai/ha
  Foxtail, Giant plant response rating: 80
[4]; 500 g ai/ha
  Plant response rating, Foxtail, Giant: 90
[5]; [17]
  Plant response rating, Wheat: 50
[5]; 500 g ai/ha
  Wheat plant response rating: 70
[6]; [17]
  Plant response rating, Pigweed: 80
[6]; 500 g ai/ha
  Pigweed plant response rating: 90
[7]; [17]
  Plant response rating, Blackgrass: 40
[7]; 500 g ai/ha
  Blackgrass plant response rating: 70
[8]; [17]
  Plant response rating, Corn: 10
[8]; 500 g ai/ha
  Corn plant response rating: 60
[9]; [17]
  Plant response rating, Barnyardgrass: 70
[9]; 500 g ai/ha
  Barnyardgrass plant response rating: 70
[10]; 125 g ai/ha
  Barnyardgrass plant response rating: 90
[10]; 500 g ai/ha
  Plant response rating, Barnyardgrass: 90
[11]; [17]
  Plant response rating, Kochia: 40
[11]; 500 g ai/ha
  Kochia plant response rating: 80
[12]; [17]
  Plant response rating, Foxtail, Giant: 60
[12]; 500 g ai/ha
  Foxtail, Giant plant response rating: 90
[13]; [17]
  Plant response rating, Ragweed: 50
[13]; 500 g ai/ha
  Ragweed plant response rating: 70
[14]; 125 g ai/ha
  Kochia plant response rating: 90
[14]; 500 g ai/ha
  Plant response rating, Kochia: 90
[15]; [17]
  Plant response rating, Galium: 90
[15]; 500 g ai/ha
  Galium plant response rating: 90
[16]; 125 g ai/ha
  Ryegrass, Italian plant response rating: 80
[16]; 500 g ai/ha
  Plant response rating, Ryegrass, Italian: 90

## COC1CCN(C(=O)c2cc(NS(=O)(=O)C(F)(F)F)c(Cl)cc2C)CC1 [Compound 246]
[1]; 125 g ai/ha
  Plant response rating, Ryegrass, Italian: 0
[1]; [18]
  Plant response rating, Ryegrass, Italian: 10
[2]; [19]
  Plant response rating, Ragweed: 80
[2]; 500 g ai/ha
  Ragweed plant response rating: 90
[3]; [19]
  Plant response rating, Pigweed: 90
[3]; 500 g ai/ha
  Pigweed plant response rating: 100
[4]; [19]
  Plant response rating, Foxtail, Giant: 90
[4]; 500 g ai/ha
  Foxtail, Giant plant response rating: 100
[5]; 125 g ai/ha
  Plant response rating, Wheat: 20
[5]; [18]
  Plant response rating, Wheat: 60
[6]; 125 g ai/ha
  Plant response rating, Pigweed: 90
[6]; [18]
  Plant response rating, Pigweed: 90
[7]; 125 g ai/ha
  Plant response rating, Blackgrass: 20
[7]; [18]
  Plant response rating, Blackgrass: 0
[8]; 125 g ai/ha
  Plant response rating, Corn: 20
[8]; [18]
  Plant response rating, Corn: 40
[9]; 125 g ai/ha
  Plant response rating, Barnyardgrass: 70
[9]; [18]
  Plant response rating, Barnyardgrass: 90
[10]; [19]
  Plant response rating, Barnyardgrass: 40
[10]; 500 g ai/ha
  Barnyardgrass plant response rating: 100
[11]; 125 g ai/ha
  Plant response rating, Kochia: 20
[11]; [18]
  Plant response rating, Kochia: 80
[12]; 125 g ai/ha
  Plant response rating, Foxtail, Giant: 60
[12]; [18]
  Plant response rating, Foxtail, Giant: 90
[13]; 125 g ai/ha
  Plant response rating, Ragweed: 90
[13]; [18]
  Plant response rating, Ragweed: 90
[14]; [19]
  Plant response rating, Kochia: 40
[14]; 500 g ai/ha
  Kochia plant response rating: 90
[15]; 125 g ai/ha
  Plant response rating, Galium: 90
[15]; [18]
  Plant response rating, Galium: 90
[16]; [19]
  Plant response rating, Ryegrass, Italian: 70
[16]; 500 g ai/ha
  Ryegrass, Italian plant response rating: 100

## COC(=O)C1CCN(C(=O)c2cc(NS(=O)(=O)C(F)(F)F)c(C)cc2C)CC1 [Compound 50]
[1]; [20]
  Plant response rating, Ryegrass, Italian: 90
[2]; 1000 g ai/ha
  Plant response rating, Ragweed: 80
[3]; 1000 g ai/ha
  Plant response rating, Pigweed: 100
[4]; 1000 g ai/ha
  Plant response rating, Foxtail, Giant: 100
[5]; [20]
  Plant response rating, Wheat: 50
[6]; [20]
  Plant response rating, Pigweed: 90
[7]; [20]
  Plant response rating, Blackgrass: 20
[8]; [20]
  Plant response rating, Corn: 10
[9]; [20]
  Plant response rating, Barnyardgrass: 60
[10]; 1000 g ai/ha
  Plant response rating, Barnyardgrass: 100
[11]; [20]
  Plant response rating, Kochia: 60
[12]; [20]
  Plant response rating, Foxtail, Giant: 90
[13]; [20]
  Plant response rating, Ragweed: 50
[14]; 1000 g ai/ha
  Plant response rating, Kochia: 90
[15]; [20]
  Plant response rating, Galium: 90
[16]; 1000 g ai/ha
  Plant response rating, Ryegrass, Italian: 70
